For one data set, the system named is L1210 leukemia. The data set is described as follows: Antitumor activity in mice, L1210 leukemia. It is filed as in vivo, mice (male BDF1 strain). The settings on record: ip; for T/C % of MST: once daily for 9 days.
For another data set, the system named is P388 leukemia. The data set is classed as in vivo, mice (male BDF1 strain). To be noted: for T/C % of MST: ip, once daily for 9 days.
A further data set concerns B16 melanoma. Description: Antitumor activity in mice, B16 melanoma. The data set is classed as in vivo, mice (male BDF1 strain). To be noted: ip; for T/C % of MST: once daily for 9 days.
For data set [1], the system named is Morganella morganii A9553. It is filed as cell-based.
A further data set relates to Escherichia coli NIHJ. The data set is classed as cell-based.
The test system of a further data set is Proteus vulgaris A9436. The data set is classed as cell-based.
Another data set concerns Proteus mirabilis A9554. It is filed as cell-based.
Data set [2] relates to Staphylococcus aureus 52-34. The data set is classed as cell-based. The settings on record: 5234.
Data set [3] has as its system Strpetococcus faecalis A9612. The data set is classed as cell-based.
Data set [4] concerns Staphylococcus aureus D136. It is filed as cell-based.
Data set [5] concerns Staphylococcus epidermidis D153. It is filed as cell-based.
Data set [6] concerns Enterobacter cloacae A9659. Description: microbe, parasite or virus in culture. It is filed as cell-based.
The subject of data set [7] is Staphylococcus epidermidis A22152. It is filed as cell-based.
The test system of data set [8] is Staphylococcus aureus A20239. It is filed as cell-based.
Data set [9] deals with Klebsiella pnuemonia D-11. It is filed as cell-based. The settings on record: D11.
Data set [10] relates to Bacillus subtilis PCI-219. The data set is described as follows: microbe, parasite or virus in culture. The data set is classed as cell-based.
Data set [11] deals with Micrococcus luteus PCI-1001. The data set is described as follows: microbe, parasite or virus in culture. It is filed as cell-based.
Data set [12] deals with Staphylococcus aureus BX-1633. It is filed as cell-based.
For data set [13], the system named is Staphylococcus aureus A15097. The data set is classed as cell-based.
Data set [14] deals with Serratia marcescens A20222. The data set is described as follows: microbe, parasite or virus in culture. It is filed as cell-based.
The subject of data set [15] is Pseudomonas aeruginosa A9930. It is filed as cell-based.
For data set [16], the system named is Bacteriodes fragilis A22533. The data set is classed as cell-based.
For data set [17], the system named is Bacteriodes fragilis A22695. The data set is classed as cell-based.
The test system of data set [18] is Bacteriodes fragilis A22693. It is filed as cell-based. To be noted: GAM agar, 10^7-10^8 inoculum.
The test system of data set [19] is Bacteriodes fragilis A22053. It is filed as cell-based.
The subject of data set [20] is Bacteriodes fragilis CUH-108. The data set is classed as cell-based.
Data set [21] relates to Clostridium difficile A21675. It is filed as cell-based. To be noted: Clostridioides difficile, GAM agar, 10^7-10^8 inoculum.
Data set [22] deals with Bacteriodes fragilis A22021. The data set is classed as cell-based.
Data set [23] concerns Bacteriodes fragilis A22534. It is filed as cell-based.
Data set [24] deals with Propionibacterium acnes A21933. It is filed as cell-based. To be noted: Cutibacterium acnes.
The test system of data set [25] is Peptostreptococcus anaerobius A21905. It is filed as cell-based.
Data set [26] has as its system aerobic gram-negative organisms. The data set is classed as cell-based.
The subject of data set [27] is various gram-positive and anaerobic bacteria. It is filed as cell-based.
The test system of the next data set is anaerobic bacteria. It is filed as cell-based.
Data set [28] has as its system Clostridium perfringens A22787. The data set is described as follows: microbe, parasite or virus in culture. The data set is classed as cell-based.
Data set [29] relates to aerobic gram-positive bacteria. It is filed as cell-based.
The mark [30] stands for this setting: Bacteriodes fragilis A22533, GAM agar, 10^7-10^8 inoculum, read-out: MIC.
Where [31] appears, read: Bacteriodes fragilis A22695, GAM agar, 10^7-10^8 inoculum, read-out: MIC.
The mark [32] stands for this setting: Bacteriodes fragilis CUH-108, GAM agar, 10^7-10^8 inoculum, read-out: MIC.

In brackets after ≈: the same amount, converted by molar mass. Read-outs that look alike come from different tables or passages of the source.

Consider `CO[C@@]12[C@H](COC(N)=O)C3=C(C(=O)C(C)=C(N)C3=O)N1C[C@@H]1N[C@@H]12` [Mitomycin C, reference compound], for which the “T/C % of MST” value in the data set with L1210 leukemia (0.13 mg/kg/day) is reported as 129%; with L1210 leukemia (0.25 mg/kg/day) it was 129%; in the data set with L1210 leukemia (0.5 mg/kg/day) it was 141%; in the data set on L1210 leukemia (1 mg/kg/day), 141%; with P388 leukemia (0.13 mg/kg/day, P388 leukemia) it was 150%; in the data set on P388 leukemia (0.25 mg/kg/day, P388 leukemia), 180%. The “T/C % of MST” value was found to be 240% with P388 leukemia (0.5 mg/kg/day, P388 leukemia); 450% in the data set with P388 leukemia (1 mg/kg/day, P388 leukemia); 164% in the data set on B16 melanoma (0.5 mg/kg/day); 191% in the data set on B16 melanoma (1 mg/kg/day).
Turning to `NC[C@H]1O[C@H](O[C@H]2[C@H](O)[C@@H](O[C@H]3O[C@H](CO)[C@@H](O)[C@H](N)[C@H]3O)[C@H](N)C[C@@H]2N)[C@H](O)[C@@H](O)[C@@H]1O` [Kanamycin, reference compound], the MIC in data set [1] worked out at 6.3 µg/mL (≈ 13 µM); in the data set on Escherichia coli NIHJ (read-out: MIC), 1.6 µg/mL (≈ 3.3 µM); in the data set on Proteus vulgaris A9436 (read-out: MIC), 0.8 µg/mL (≈ 1.65 µM); against Proteus mirabilis A9554, 6.3 µg/mL (≈ 13 µM); in data set [2], 0.8 µg/mL (≈ 1.65 µM); in data set [3] it was 25 µg/mL (≈ 51.6 µM). The MIC in data set [4] (read-out: MIC) is 0.8 µg/mL (≈ 1.65 µM); in [5] it was 0.8 µg/mL (≈ 1.65 µM); in [6] (read-out: MIC), 3.1 µg/mL (≈ 6.4 µM); in data set [7], 25 µg/mL (≈ 51.6 µM); in data set [8], 100 µg/mL (≈ 206 µM); in data set [9] it was 0.4 µg/mL (≈ 0.826 µM). For the same molecule, the MIC in data set [10] (PCI219, read-out: MIC) stood at 0.2 µg/mL (≈ 0.413 µM); in [11] (PCI1001), 6.3 µg/mL (≈ 13 µM); in data set [12] (BX1633, read-out: MIC) it was 0.8 µg/mL (≈ 1.65 µM); in data set [13] (read-out: MIC) it was 0.8 µg/mL (≈ 1.65 µM); in data set [14] (read-out: MIC), 3.1 µg/mL (≈ 6.4 µM); in data set [15] it was 6.3 µg/mL (≈ 13 µM).
Turning to `CCC[C@@H]1C[C@@H](C(=O)N[C@@H]([C@H]2O[C@H](SC)[C@H](O)[C@@H](O)[C@H]2O)[C@H](C)Cl)N(C)C1` [Clindamycin], the MIC in data set [16] (setting [30]) is 0.1 µg/mL (≈ 0.235 µM); in [17] (setting [31]), 0.1 µg/mL (≈ 0.235 µM); in [18] it was 0.1 µg/mL (≈ 0.235 µM); in data set [19] (Bacteriodes fragilis A22053, GAM agar, 10^7-10^8 inoculum, read-out: MIC), 0.2 µg/mL (≈ 0.471 µM); in data set [20] (setting [32]), 100 µg/mL (≈ 235 µM); in [21] it was 50 µg/mL (≈ 118 µM). Also, the MIC in data set [22] (Bacteriodes fragilis A22021, GAM agar, 10^7-10^8 inoculum, read-out: MIC) is 0.1 µg/mL (≈ 0.235 µM).
For the molecule `CC1(C)S[C@@H]2[C@H](NC(=O)[C@H](N)c3ccccc3)C(=O)N2[C@H]1C(=O)O` [Ampicillin, reference compound], the MIC was over 100 µg/mL in data set [16] (setting [30]); over 100 µg/mL in data set [17] (setting [31]); over 100 µg/mL in data set [23] (Bacteriodes fragilis A22534, GAM agar, 10^7-10^8 inoculum, read-out: MIC); 50 µg/mL (≈ 143 µM) in [20] (setting [32]); 0.025 µg/mL (≈ 0.0715 µM) in data set [10] (PCI219); under 0.0063 µg/mL in data set [11] (PCI1001, read-out: MIC).
For `COc1cccc2c1N[C@H](O)[C@@H]1CC(/C=C/C(=O)N(C)C)=CN1C2=O` [BMY-28121 A], the MIC is 0.4 µg/mL (≈ 1.16 µM) in data set [24] (read-out: MIC); over 50 µg/mL in [1]; 50 µg/mL (≈ 146 µM) against Escherichia coli NIHJ; over 50 µg/mL in the data set on Proteus vulgaris A9436; over 50 µg/mL against Proteus mirabilis A9554; 3.1 µg/mL (≈ 9.03 µM) in [2]. The MIC in [3] was 12.5 µg/mL (≈ 36.4 µM); in data set [5], 3.1 µg/mL (≈ 9.03 µM); in [6], over 50 µg/mL; in data set [19] (read-out: MIC) it was 0.8 µg/mL (≈ 2.33 µM); in [8], 12.5 µg/mL (≈ 36.4 µM); in data set [25] (read-out: MIC) it was 0.4 µg/mL (≈ 1.16 µM). The MIC in data set [20] (read-out: MIC) is 0.8 µg/mL (≈ 2.33 µM); in [9], over 50 µg/mL; in data set [11] (PCI1001) it was 12.5 µg/mL (≈ 36.4 µM); in data set [12] (BX1633) it was 12.5 µg/mL (≈ 36.4 µM); in [13], 12.5 µg/mL (≈ 36.4 µM); in data set [14], over 50 µg/mL. Moreover, the values for the MIC in data set [15] and in data set [22] (read-out: MIC) were over 50 µg/mL and 0.8 µg/mL (≈ 2.33 µM), respectively. The “antitumor activity against experimental tumors in mice” value with P388 leukemia (mouse, in vivo) was “marked antitumor activity”. The “times more active than mitomycin C in terms of minimum effective dose” value in the data set with P388 leukemia (mouse, in vivo) is recorded as “approximately 4 times”. For the same molecule, in data set [26], the “in vitro activity against aerobic gram-negative organisms” value is listed as “did not show any in vitro activity”. For the same molecule, the antibacterial activity entry in [27] was “possess antibacterial activity”.
Turning to `COc1cccc2c1N[C@H](OC)[C@@H]1CC(/C=C/C(=O)N(C)C)=CN1C2=O` [BMY-28121 B, 1,10,11,11a-tetrahydro-9,11-dimethoxy-5H-pyrrolo-[2,1-c][1,4]benzodiazepine-5-one-2-N,N-dimethylacrylamide], the “T/C % of MST” value is recorded as 129% in the data set with L1210 leukemia (0.13 mg/kg/day); 129% with L1210 leukemia (0.25 mg/kg/day); 120% in the data set with P388 leukemia (0.008 mg/kg/day, P388 leukemia); 200% with P388 leukemia (0.13 mg/kg/day, P388 leukemia); 210% in the data set with P388 leukemia (0.25 mg/kg/day, P388 leukemia); 113% in the data set with B16 melanoma (0.13 mg/kg/day). In addition, in the data set with B16 melanoma (0.25 mg/kg/day), the “T/C % of MST” value came to 131%. The “therapeutic activity against L1210 leukemia” value with L1210 leukemia is recorded as “potent therapeutic activity”. The MIC in data set [24] is 0.4 µg/mL (≈ 1.12 µM); in data set [16] it was 0.8 µg/mL (≈ 2.24 µM); in data set [1], over 50 µg/mL; in [17], 0.4 µg/mL (≈ 1.12 µM); against Escherichia coli NIHJ, over 50 µg/mL; with Proteus vulgaris A9436, over 50 µg/mL. Also, the MIC was over 50 µg/mL in the data set with Proteus mirabilis A9554; 6.3 µg/mL (≈ 17.6 µM) in data set [3]; 6.3 µg/mL (≈ 17.6 µM) in [4]; over 50 µg/mL in data set [6]; 0.4 µg/mL (≈ 1.12 µM) in [19]; 6.3 µg/mL (≈ 17.6 µM) in data set [8]. Further, the MIC was 0.4 µg/mL (≈ 1.12 µM) in [28]; 0.2 µg/mL (≈ 0.56 µM) in data set [25]; 0.4 µg/mL (≈ 1.12 µM) in data set [23]; 0.4 µg/mL (≈ 1.12 µM) in data set [20]; over 50 µg/mL in data set [9]; 12.5 µg/mL (≈ 35 µM) in data set [11] (PCI1001). Moreover, the MIC in data set [12] (BX1633) is 6.3 µg/mL (≈ 17.6 µM); in data set [13] it was 6.3 µg/mL (≈ 17.6 µM); in data set [14], over 50 µg/mL; in [15], over 50 µg/mL; in data set [22] it was 0.2 µg/mL (≈ 0.56 µM). Also, the solubility result (in ethyl acetate and ethyl ether) is given as “slightly soluble”; the solubility result (in methanol, ethanol, chloroform, pyridine, and dimethylformamide) is on record as “readily soluble”; the solubility result (in n-hexane and water) is listed as “practically insoluble”. The “times more active than mitomycin C in terms of minimum effective dose” value in the data set with P388 leukemia (P388 leukemia, vs mitomycin C) is listed as “approximately 4 times”. In addition, in the data set with P388 leukemia (eg. P388 leukemia in mice), the “antitumor activity against experimental tumors in mice” value is “marked antitumor activity”. Moreover, the “inhibition of anaerobic bacteria” value with anaerobic bacteria was “inhibited all of the gram-positive and negative organisms”. Also, the “activity against B16 melanoma” value in the data set with B16 melanoma is on record as “marginally active”. Also, the “in vitro activity against aerobic gram-negative organisms” value in data set [26] is given as “did not show any in vitro activity”. For the same molecule, in data set [27], the antibacterial activity result is listed as “possess antibacterial activity”. Also, the “susceptibility of aerobic gram-positive bacteria” value in [29] is reported as “moderately susceptible”.

These data come from patent US4935362A, “BMY-28121, a new antitumor antibiotic” (Bristol-Myers Company, priority 1987, dated 1990).
